The values below come from US20250282895A1, “PHARMACEUTICAL COMPOSITIONS OF CHEMOTHERAPEUTIC AGENTS BASED ON BETA-S[…]-AMINO ACID DERIVATIVES” (priority 2021, published 2025).

The data set in a line: Comparative stability, Formulation 1 (Na3-citrate buffered). The class given is physicochemical. Particulars: Formulation 1, 25° C. On the procedure:
The stability of Compound (1c) either as the HCl salt or as the free base was compared to the stability of melphalan HCl and/or bendamustine HCl in various pharmaceutical formulations and at different concentrations and at temperatures of 0° C. or 25° C.
The stability of the compounds in the pharmaceutical formulations was determined at concentrations within the range from 0.4 mg/mL to 0.5 mg/mL, from 0.9 mg/mL to 1.1 mg/mL, and from 1.8 mg/mL to 2.1 mg/mL.
The amount of the active pharmaceutical ingredient (API) (Compound (1c), melphalan or bendamustine) in the pharmaceutical formulations at different times during storage was determined using HPLC/UV as described in detail for Example 4 and Example 5.
The first formulation included a mixture of 57.5 vol-% 1,2-propylene glycol (1,2-PG), 30 vol-% Kolliphor® HS 15 (Solutol®, Macrogol®, BASF AG/SigmaAldrich), and 12.5 vol-% ethanol (EtOH), and the resulting solution was further diluted and adjusted to pH 6.8 using a pH 8.1-8.3 Na3-citrate buffer (51 mM Na3-citrate·2H2O and 73.6 mM NaCl).
The pH 8.1-8.3 Na3-citrate buffer was prepared form 1.50 g (5.10 mmol) of Na3-citrate. 2H2O (Na3C6H5O7·2H2O; MW 294.10 g/mol; J. T. Baker, 3650-01) and 0.43 g (7.36 mmol) of sodium chloride (NaCl; MW 58.44 g/mol; SigmaAldrich, S9888) dissolved to 100 mL with double-distilled water (dd-H2O) (Arrowhead). The solution was filtered through a 0.45 μm nylon syringe filter, and the pH of the solution was adjusted to 8.1-8.3 with a saturated aqueous solution of sodium hydrogencarbonate (NaHCO3).
The excipient mixture was prepared from 4.77 g (62.7 mmol; 4.6 mL) 1,2-propylene glycol (1,2-PG; MW 76.09 g/mol; d 1.036; Acros Organics, 220870010), 2.52 g (2.40 mL, d 1.05) of melted (15 s microwaving) Kolliphor® HS 15 (BASF AG/SigmaAldrich, 42966), and 0.798 g (17.32 mmol, 1.0 mL) of ethanol (EtOH, MW 46.06 g/mol, d 0.798, KOPTEC, V1016). The clear viscous mixture was warmed to about 40° C. before use (water bath).
A series of 12 mL glass vials each containing 6.1 mg ([…]) of Compound (1c) mono-hydrochloride salt (corresponding to 5.5 mg of Compound (1c) as the free base) were prepared as described in Example 5 through lyophilization of aliquots of an acidified stock solution.
660 μL (6 vol-%) of pre-warmed excipient mixture were added to the Compound (1c) mono-hydrochloride salt in the vial. Compound (1c) mono-hydrochloride salt was dissolved with gentle heating and vortexing. The viscous solution was further diluted with 10,340 μL (94 vol-%) of pH 8.1-8.3 Na3-citrate buffer to provide 11.0 mL of a clear, colorless formulation with a concentration of 0.5 mg/ml of Compound (1c) as a monohydrochloride salt and a pH of 6-7.
330 μL (6 vol-%) of pre-warmed excipient mixture were added to the Compound (1c) mono-hydrochloride salt in the vial. Compound (1c) mono-hydrochloride salt was dissolved with gentle heating and vortexing. The viscous solution was further diluted with 5,170 μL (94 vol-%) of pH 8.1-8.3 Na3-citrate buffer to provide 5.5 mL of a clear, colorless formulation with a concentration of 1.0 mg/mL of Compound (1c) as a monohydrochloride salt and a pH of 6-7.
165 μL (6 vol-%) of pre-warmed excipient mixture were added to the Compound (1c) mono-hydrochloride salt in the vial. Compound (1c) mono-hydrochloride salt was dissolved with gentle heating and vortexing. The viscous solution was further diluted with 2,585 μL (94 vol-%) of pH 8.1-8.3 Na3-citrate buffer to provide 2.75 mL of a clear, colorless formulation with a concentration of 2.0 mg/ml of Compound (1c) as a monohydrochloride salt and a pH of 6-7.
The solutions were placed in glass vials and stored at room temperature (about 25° C.), and the amount of Compound (1c) derived from the mono hydrochloride salt (mono HCl salt) of compound of Formula (1c) was measured at intervals using analytical high pressure liquid chromatography coupled to a UV detector (HPLC/UV) as described in Example 4.

Counter-ions that a name gives are not always drawn.

In the case of `Cc1ccc(N(CCCl)CCCl)cc1C[C@H](N)CC(=O)O` [Compound (1c)•HCl, (S)-3-amino-4-(5-(bis(2-chloroethyl)amino)-2-methylphenyl) butanoic acid mono hydrochloride salt], the “% API” value runs as follows: (pH 6.8, 0.5 hours, 0.4-0.5 mg/mL) 79%; (pH 6.8, 0.5 hours, 0.9-1.1 mg/mL) 84%; (pH 6.8, 0.5 hours, 1.8-2.1 mg/mL) 88%; (pH 6.8, 2.0 hours, 0.4-0.5 mg/mL) 52%; (pH 6.8, 2.0 hours, 0.9-1.1 mg/mL) 55%; (pH 6.8, 2.0 hours, 1.8-2.1 mg/mL) 65%.
